Data from patent US20070154962A1, “Bcl-2 promoted cell death” (priority 2005, published 2007).

Tests used:
Assay type in all cases: cell-based
PC12 cells [1] = assay: Flow cytometry of sub-G1 nuclei from PC12 cells transiently transfected with Bcl-2-GFP and exposed to H2O2; conditions: treated cells compared with untreated controls; FIG. 5
Description: FIG. 5: Flow cytometry measuring apoptotic cells from PC12 cells transiently transfected with Bcl-2-GFP with and without H2O2 treatment.
An alternative explanation would be that Bcl-2 relocates to the nucleus in response to apoptosis. […] However, there was no increase in the percent of sub-G1 nuclei carrying Bcl-2-GFP in cells treated with H2O2 as compared to untreated cells. In fact, there was a paradoxical decrease, which is expected if one appreciates that the number of sub-G1 nuclei increased after H2O2 treatment without a concomitant increase of nuclear Bcl-2-GFP. Therefore, nuclear association of Bcl-2 was […] apoptosis.

[2] = test system: PC12 cells stably expressing vector or Bcl-2; assay: Cell survival (renilla luciferase) of stably transfected PC12 cells transiently transfected with BH4 peptide vector; conditions: FIG. 19
Experimental: FIG. 19: Cell survival was measured in PC12 cells stably expressing vector or Bcl-2. These two cell lines were transiently co-transfected with luciferase and either vector, BH4 domain, or BH4Gly.
(§1) The overall rationale of the experiment was to determine if domain interference disrupted Bcl-2/FKBP38 binding, changed Bcl-2's cellular localization (i.e., result in Bcl-2 misplacement at the nucleus) and ultimately promoted Bcl-2-triggered apoptosis. […] The rationale for using a peptide larger that the BH4 domain itself was to provide structure stability to the alpha-helix of the BH4 domain (AA 11-25) through sufficient flanking regions. Cells were further co-transfected with renilla luciferase so as to determine the extent of their survival. […] It is important to note that PC12 cells expressing Bcl-2 cells diddo not depend on Bcl-2 for their survival and therefore the effect of the BH4 peptide was not due to abolishment of Bcl-2 protection. Rather, it reflected an active induction of apoptosis by Bcl-2, triggered by the BH4 peptide. The possibility that PC12 cells expressing Bcl-2 may have undergone selection during the establishment of stable transfection that could have rendered them non-specifically sensitive to the BH4 peptide was excluded.

[3] = test system: Human leukemia cells (HL-60); assay: Cell death as LDH release in HL-60 cells transiently transfected with BH4 peptide-expressing vector; conditions: HL-60, 48 after transfection, vs. Flag or BH4Gly; FIG. 24
Experimental: The extent of cell death was assessed 48 after transfection as release of LDH in the cell culture medium.
The extent of cell death was assessed 48 after transfection as release of LDH in the cell culture medium. Statistical difference was vs. Flag or BH4Gly (Two-tailed Student “t” test; N=4-7 independent measurements per group).

PC12 cells [4] = assay: Cell survival of naive PC12 cells transiently co-transfected with Bcl-2 or vector and BH4 or BH4Gly; conditions: transient (24 hr) transfection of the BH4 vector alone, without Bcl-2, FIG. 20
Experimental: FIG. 20: Cell survival was measured in PC12 cells transiently co-transfected with Bcl-2 or vector, and either vector, BH4 or BH4Gly.
as §1

Row | Compound | sub-G1 (apoptotic) nuclei (PC12 cells [1]) | induction of apoptosis / survival ([2]; PC12 cells not expressing Bcl-2 (empty vector pmKitNeo)) | survival of cells (renilla luciferase) ([2]; PC12 cells stably expressing Bcl-2, compared with BH4-transfected cells stably expressing empty pmKitNeo) | cell death (release of LDH in the cell culture medium) [3] | cell survival (PC12 cells [4])
1 | OO [H2O2] | substantial increase |  |  |  | 
2 | BH4 peptide: vector-expressed peptide identical to the N-terminal 30 amino acids of Bcl-2, including the 11-25 BH4 domain (MAHAGRTGYDNREIVMKYIHYKLSQRGYEW; UniProt P10415 1-30, looked up, fragment) |  | unaffected | significantly lower | effective in inducing cell death | did not affect cell survival
